# In patent US7772255B2, “Method of treating tumors with azaxanthones” (Supratek Pharma, Inc., priority 2005, dated 2010):
# Tests used:
# B16F10/DX cells = assay: B16 experimental metastasis model (Example 26); type: in vivo, mouse; details: B16F10/DX i.v. in C57BL/6 mice; Amlexanox 100 mg/kg daily p.o.; mean±SEM
# Procedure: Amlexanox solution for injections was prepared according to the Example 4. B16F10/DX cell (2.0×10^5 cells per animal) were inoculated intravenously in female C57BL//6 mice (6-7 weeks old) and animals were then divided randomly into 4 groups (n=9 except for control group): 1) intact control (n=12, saline); 2) Amlexanox (100 mg/kg, daily p.o. administration); 3) TPT (2.0 mg/kg i.v. administration on day 1, 4, and 7); 5) Amlexanox (daily p.o. 100 mg/kg)+TPT (i.v. 2.0 mg/kg on day 1, 4, and 7). Intact control received oral administration with 10 ml/kg (volume/body weight) of saline, while Amlexanox was administrated orally and daily with a dose of 100 mg/kg in a volume of 10 ml/kg. The treatments were started from the day following the tumor cell implantation until the end of the protocol. However, TPT was administrated intravenously only on day 1, 4, and 7 after tumor implantation. The animal body weight was recorded as an index of treatment toxicity during the experiment.
# The data in Table show metastasis formation in the lung in the mice implanted with B16F10/DX cells. The data are expressed as mean±SEM for the number of metastatic sites on the lung surface.
# colorectal cancer = assay: Amlexanox in combination with irinotecan in colorectal cancer, first-line (Example 9); type: in vivo, human; details: amlexanox tablets orally plus irinotecan 350 mg/m^2 i.v. every 3 weeks, versus irinotecan alone
# Procedure: In this open label randomized multicenter study 150 patients with colorectal cancer who have tumors that cannot be completely removed by surgery are treated by administering irinotecan alone and 150 patients, with colorectal cancer who have tumors that cannot be completely removed by surgery, are treated with combination of irinotecan and 500 mg amlexanox daily with two amlexanox 250 mg tablets, prepared in Example 3, taken twice daily orally to provide a daily dose of […] of amlexanox. Irinotecan was administered to all of the patients at a dose of 350 mg/m^2 once every 3 weeks intravenously during the course of this study. […] In addition, in each of the treated patients, duration of overall response, time to overall response, duration of progression-free survival, overall clinical benefit rate, overall survival rate and quality of life are determined. […] The patients are evaluated by standard WHO and/or RECIST criteria for response and disease status at six week intervals. […] All of the patients during the evaluation period are evaluated by the measurement of the tumors, survival and determination of any progression of the disease in the patient. Stability is measured during each evaluation to determine if there is any increase in the size and amount of tumors from the proceeding period and if there is no subsequent appearance of any other malignancies in the patient. […]
# CSML100 cells = assay: Spontaneous metastasis model in mice (Example 27); type: in vivo, mouse
# Procedure: Amlexanox solution for injections was prepared according to the Example 4. CSML100 cells (2.0×10^6 cells per animal) were inoculated subcutaneously to female A/J mice (6-7 weeks old). The animals were then divided randomly into 2 groups (n=9): Intact control (saline) and Amlexanox treated (100 mg/kg, daily i.v. injection for 10 consecutive days). The treatment started from the day following the tumor implantation. The measurement of tumor size was performed since day 11. On day 24, the tumors were surgically removed. The lung metastasis development was analyzed 40 days after the tumor resection.
# The data in Table show spontaneous lung metastasis formation in this tumor model. The data are expressed as mean±SEM for the number of metastatic sites on the lung surface.
# [1] = system: metastatic (Stage III-Stage IV) breast cancer; assay: Amlexanox monotherapy in advanced metastatic breast cancer resistant to prior chemotherapy (Example 8); type: in vivo, human; details: 500 mg orally twice daily; baseline until nine months after administration and follow up
# Procedure: In this study 44 women patients with metastatic (Stage III-Stage IV) breast cancer who have relapsed following prior cytotoxic chemotherapy regiments containing anthracyclines and/or taxanes are treated by administering 500 mg amlexanox twice daily with two amlexanox 250 mg tablets prepared in Example 3 taken twice daily orally as outpatients. This treatment is carried out for determining the overall (complete and partial) response rate. In this group, the stable disease rate of patients treated with amlexanox is determined. In addition, in each of the treated patients, the time to disease progression is also determined. The results of this study are compared to untreated patients with metastatic (Stage III-Stage IV) breast cancer who have relapsed following the same prior cytotoxic chemotherapy regiment. […] The patients are evaluated by standard WHO and/or RECIST criteria for response and disease status at six week intervals. […] All of the patients during the evaluation period are evaluated by the measurement of the tumors, survival and determination of any progression of the disease in the patient. Stability is measured during each evaluation to determine if there is any increase in the size and amount of tumors from the proceeding period and if there is no subsequent appearance of any other malignancies in the patient. […]
compound,measurement,setting,value
"CC(C)c1ccc2oc3nc(N)c(C(=O)O)cc3c(=O)c2c1 [Amlexanox, 2-amino-7-isopropyl-1-azaxanthone-3-carboxylic acid]",Lung Metastasis Number per Animal,B16F10/DX cells,71.3 ± 15.5
same,"percentage of patients with beneficial results (overall response rate, progression-free survival, overall survival etc.)",colorectal cancer,greater percentage of the patients in the group of patients treated with the amlexanox show beneficial results
same,Lung metastasis number 40 days after s.c. tumor resection,"CSML100 cells; CSML100 s.c. in A/J mice, 100 mg/kg i.v. daily for 10 days, tumors removed day 24, mean±SEM, one animal (26 metastases) excluded",1.00 ± 0.55
same,Subcutaneous tumor size on day 14,"CSML100 cells; CSML100 s.c. in A/J mice, 100 mg/kg i.v. daily injection for 10 days",0.05 ± 0.02 g
same,Trial/control × 100%,"CSML100 cells; lung metastasis number 40 days after s.c. tumor resection, 100 mg/kg i.v. daily for 10 days",96.3%
same,"percentage of patients with no progression of the disease by WHO and/or RECIST criteria, compared to the non-treated group",[1],greater percentage of the patients in the group of patients treated with the amlexanox show no progression of the disease
